According to US10428134B2, “Immunoglobulins and uses thereof” (JANSSEN PHARMACEUTICA NV, priority 2016, dated 2019):

Experiment: Single-dose efficacy in DIO mice: plasma FGF21
Settings: 0.3 nmol/kg s.c., 26 hours after treatment

## Dulaglutide: the GLP1R agonist, dulaglutide [reference compound]
  Plasma FGF21: 0.8 ± 0.2 ng/mL
